{"source": "patent US11866450B2", "about": "“Modulators of Cystic Fibrosis Transmembrane Conductance regulator, pharmaceutical compositions, methods of treatment, and process for making the modulators” (priority 2018, dated 2024)", "target": "CFTR-mediated chloride transport (Homo sapiens, UniProt P13569)", "sequence (P13569 whole entry, looked up)": "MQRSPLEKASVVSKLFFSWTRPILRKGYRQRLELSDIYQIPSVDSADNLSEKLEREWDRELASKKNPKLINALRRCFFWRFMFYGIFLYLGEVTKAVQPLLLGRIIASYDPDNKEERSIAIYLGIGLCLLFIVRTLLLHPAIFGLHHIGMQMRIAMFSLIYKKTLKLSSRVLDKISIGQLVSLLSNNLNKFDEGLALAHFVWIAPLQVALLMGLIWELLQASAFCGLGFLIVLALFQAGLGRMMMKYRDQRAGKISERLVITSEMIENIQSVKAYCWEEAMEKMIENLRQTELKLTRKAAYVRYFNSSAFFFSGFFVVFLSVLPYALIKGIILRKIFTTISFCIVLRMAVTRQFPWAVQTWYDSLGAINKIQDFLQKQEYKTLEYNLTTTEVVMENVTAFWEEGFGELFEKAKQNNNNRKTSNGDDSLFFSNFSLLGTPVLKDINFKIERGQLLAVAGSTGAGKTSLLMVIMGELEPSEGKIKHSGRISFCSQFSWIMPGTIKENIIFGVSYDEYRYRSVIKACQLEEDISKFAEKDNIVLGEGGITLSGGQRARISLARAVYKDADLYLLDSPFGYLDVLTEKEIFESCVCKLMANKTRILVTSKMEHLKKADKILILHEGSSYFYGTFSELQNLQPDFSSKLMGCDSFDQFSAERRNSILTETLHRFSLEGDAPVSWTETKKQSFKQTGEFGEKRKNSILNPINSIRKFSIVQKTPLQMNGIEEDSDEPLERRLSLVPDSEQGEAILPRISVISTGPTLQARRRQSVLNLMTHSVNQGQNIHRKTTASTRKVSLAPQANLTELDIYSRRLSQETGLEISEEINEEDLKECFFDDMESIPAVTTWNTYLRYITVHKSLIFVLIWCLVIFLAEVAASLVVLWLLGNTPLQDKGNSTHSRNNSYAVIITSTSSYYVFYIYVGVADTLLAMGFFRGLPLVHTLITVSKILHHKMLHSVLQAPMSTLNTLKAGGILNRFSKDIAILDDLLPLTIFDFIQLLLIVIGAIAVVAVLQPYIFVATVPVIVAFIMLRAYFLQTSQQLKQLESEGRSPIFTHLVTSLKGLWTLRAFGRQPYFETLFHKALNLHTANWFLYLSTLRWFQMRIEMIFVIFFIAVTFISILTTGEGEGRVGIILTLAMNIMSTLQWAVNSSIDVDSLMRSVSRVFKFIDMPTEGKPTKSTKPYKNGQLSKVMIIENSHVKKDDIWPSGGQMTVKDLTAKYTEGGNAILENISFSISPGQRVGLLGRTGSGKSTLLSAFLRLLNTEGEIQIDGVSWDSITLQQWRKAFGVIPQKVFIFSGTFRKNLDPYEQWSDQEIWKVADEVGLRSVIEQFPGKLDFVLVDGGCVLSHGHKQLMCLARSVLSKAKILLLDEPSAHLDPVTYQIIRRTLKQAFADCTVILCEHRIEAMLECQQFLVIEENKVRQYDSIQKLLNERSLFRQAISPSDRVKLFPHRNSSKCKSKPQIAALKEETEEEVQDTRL", "assay_type": "cell-based", "settings": "enteroid cells incubated with test compound 18-24 hours, acute 10 μM forskolin and 300 nM Compound III; for Max. Activity: % of chloride transport with 3 μM Compound A, 3 μM Compound II and 300 nM acute Compound III triple combination control", "in_short": "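Human intestinal enteroid cells incubated with compound 18–24 h at 37° C., then membrane potential dye (FLIPR) read 15 min after chloride-free stimulation with 10 μM forskolin, 100 μM IBMX and 300 nM Compound III. AUC expressed as % of triple-combination control (3 μM Compound A, 3 μM Compound II, 300 nM Compound III).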", "data": [{"compound": "CC1(C)CCC(CN2CCN(c3ccc4c(n3)N3C[C@@H](CCCNc5cccc(n5)S(=O)(=O)NC4=O)CC3(C)C)C2=O)CC1", "note": "[Compound 217, (14S)-8-{3-[(4,4-Dimethylcyclohexyl)methyl]-2-oxoimidazolidin-1-yl}-12,12-dimethyl-2λ^6-thia-3,9,11,18,23-pentaazatetracyclo[17.3.1.111,14.05,10]tetracosa-1(22),5,7,9,19(23),20-hexaene-2,2,4-trione]", "values": [{"measurement": "EC50", "value": "< 1000", "unit": "nM"}, {"measurement": "Max. Activity", "value": "++ (++ is 30-60%)"}]}, {"compound": "CC1(C)C[C@@H]2CCCNc3cccc(n3)S(=O)(=O)NC(=O)c3ccc(N4CCC5(CCCCC5)C4=O)nc3N1C2", "note": "[Compound 222, (14S)-12,12-dimethyl-8-{1-oxo-2-azaspiro[4.5]decan-2-yl}-2λ^6-thia-3,9,11,18,23-pentaazatetracyclo[17.3.1.111,14.05,10]tetracosa-1(22),5,7,9,19(23),20-hexaene-2,2,4-trione]", "values": [{"measurement": "EC50", "value": "< 1000", "unit": "nM"}, {"measurement": "Max. Activity", "value": "++ (++ is 30-60%)"}]}, {"compound": "CC1(C)C[C@@H]2CCCNc3cccc(n3)S(=O)(=O)NC(=O)c3ccc(N4CCN(CCC(C)(C)C(F)(F)F)C4=O)nc3N1C2", "note": "[Compound 223, (14S)-12,12-Dimethyl-8-[2-oxo-3-(4,4,4-trifluoro-3,3-dimethylbutyl)imidazolidin-1-yl]-2λ^6-thia-3,9,11,18,23-pentaazatetracyclo[17.3.1.111,14.05,10]tetracosa-1(22),5,7,9,19(23),20-hexaene-2,2,4-trione]", "values": [{"measurement": "EC50", "value": "< 1000", "unit": "nM"}, {"measurement": "Max. Activity", "value": "+++ (+++ is >60%)"}]}, {"compound": "CC1(C)C[C@@H]2CCCNc3cccc(n3)S(=O)(=O)NC(=O)c3ccc(N4CCN(CC(C)(C)C(F)(F)F)C4=O)nc3N1C2", "note": "[Compound 225, (14S)-12,12-dimethyl-8-[2-oxo-3-(3,3,3-trifluoro-2,2-dimethylpropyl)imidazolidin-1-yl]-2λ^6-thia-3,9,11,18,23-pentaazatetracyclo[17.3.1.111,14.05,10]tetracosa-1(22),5,7,9,19(23),20-hexaene-2,2,4-trione]", "values": [{"measurement": "EC50", "value": "< 1000", "unit": "nM"}, {"measurement": "Max. Activity", "value": "++ (++ is 30-60%)"}]}, {"compound": "CC1(C)C[C@@H]2CCCNc3cccc(n3)S(=O)(=O)NC(=O)c3ccc(N4CCN(CCC56CC7CC(CC(C7)C5)C6)C4=O)nc3N1C2", "note": "[Compound 228, (14S)-8-{3-[2-(Adamantan-1-yl)ethyl]-2-oxoimidazolidin-1-yl}-12,12-dimethyl-2λ^6-thia-3,9,11,18,23-pentaazatetracyclo[17.3.1.111,14.05,10]tetracosa-1(22),5,7,9,19(23),20-hexaene-2,2,4-trione]", "values": [{"measurement": "EC50", "value": "< 1000", "unit": "nM"}, {"measurement": "Max. Activity", "value": "++ (++ is 30-60%)"}]}, {"compound": "CC1(C)C[C@@H]2CCCNc3cccc(n3)S(=O)(=O)NC(=O)c3ccc(N4CCN(CC56CC7CC(CC(C7)C5)C6)C4=O)nc3N1C2", "note": "[Compound 229, (14S)-8-{3-[(adamantan-1-yl)methyl]-2-oxoimidazolidin-1-yl}-12,12-dimethyl-2λ^6-thia-3,9,11,18,23-pentaazatetracyclo[17.3.1.111,14.05,10]tetracosa-1(22),5,7,9,19(23),20-hexaene-2,2,4-trione]", "values": [{"measurement": "EC50", "value": "< 1000", "unit": "nM"}, {"measurement": "Max. Activity", "value": "++ (++ is 30-60%)"}]}, {"compound": "CC1(C)C[C@@H]2CCCNc3cccc(n3)S(=O)(=O)NC(=O)c3ccc(N4CCN(C56CC7CC(CC(C7)C5)C6)C4=O)nc3N1C2", "note": "[Compound 230, (14S)-8-[3-(Adamantan-1-yl)-2-oxoimidazolidin-1-yl]-12,12-dimethyl-2λ^6-thia-3,9,11,18,23-pentaazatetracyclo[17.3.1.111,14.05,10]tetracosa-1(22),5,7,9,19(23),20-hexaene-2,2,4-trione]", "values": [{"measurement": "EC50", "value": "< 1000", "unit": "nM"}, {"measurement": "Max. Activity", "value": "+ (+ is <30%)"}]}, {"compound": "CC(C)(C)CCN1CCN(c2ccc3c(n2)N2C(CCCNc4cccc(n4)S(=O)(=O)NC3=O)CCC2(C)C)C1=O", "note": "(centres unmarked) [Compound 232, 8-[3-(3,3-dimethylbutyl)-2-oxoimidazolidin-1-yl]-12,12-dimethyl-2λ^6-thia-3,9,11,19,24-pentaazatetracyclo[18.3.1.05,10.011,15]tetracosa-1(23),5,7,9,20(24),21-hexaene-2,2,4-trione]", "values": [{"measurement": "EC50", "value": "> 3000", "unit": "nM"}, {"measurement": "Max. Activity", "value": "+ (+ is <30%)"}]}, {"compound": "CC1(C)C[C@@H]2CCCNc3cccc(n3)S(=O)(=O)NC(=O)c3ccc(N4CCC(OCCC(C)(C)C(F)(F)F)C4=O)nc3N1C2", "note": "(stereo partly drawn) [Compound 237, (14S)-12,12-dimethyl-8-[2-oxo-3-(4,4,4-trifluoro-3,3-dimethylbutoxy)pyrrolidin-1-yl]-2λ^6-thia-3,9,11,18,23-pentaazatetracyclo[17.3.1.111,14.05,10]tetracosa-1(22),5,7,9,19(23),20-hexaene-2,2,4-trione]", "values": [{"measurement": "EC50", "value": "< 1000", "unit": "nM"}, {"measurement": "Max. Activity", "value": "+++ (+++ is >60%)"}]}, {"compound": "CC1(C)C[C@@H]2CCCNc3nc(ccc3O)S(=O)(=O)NC(=O)c3ccc(-n4ccc(OCCC5C6(CC6)C56CC6)n4)nc3N1C2", "note": "[Compound 254, (14S)-8-[3-(2-{dispiro[2.0.2.1]heptan-7-yl}ethoxy)-1H-pyrazol-1-yl]-20-hydroxy-12,12-dimethyl-2λ^6-thia-3,9,11,18,23-pentaazatetracyclo[17.3.1.111,14.05,10]tetracosa-1(23),5,7,9,19,21-hexaene-2,2,4-trione]", "values": [{"measurement": "EC50", "value": "< 1000", "unit": "nM"}, {"measurement": "Max. Activity", "value": "++ (++ is 30-60%)"}]}, {"compound": "CC1(C)C[C@@H]2CCCNc3nc(ccc3O)S(=O)(=O)NC(=O)c3ccc(-n4ccc(OCCCC5(C(F)(F)F)CC5)n4)nc3N1C2", "note": "[Compound 255, (14S)-20-hydroxy-12,12-dimethyl-8-(3-{3-[1-(trifluoromethyl)cyclopropyl]propoxy}-1H-pyrazol-1-yl)-2λ^6-thia-3,9,11,18,23-pentaazatetracyclo[17.3.1.111,14.05,10]tetracosa-1(22),5,7,9,19(23),20-hexaene-2,2,4-trione]", "values": [{"measurement": "EC50", "value": "< 1000", "unit": "nM"}, {"measurement": "Max. Activity", "value": "++ (++ is 30-60%)"}]}, {"compound": "CC1(C)C[C@@H]2CCCNc3cccc(n3)S(=O)(=O)NC(=O)c3ccc(-n4ccc(OCC(O)C5C6(CC6)C56CC6)n4)nc3N1C2", "note": "(stereo partly drawn) [Compound 257, (14S)-8-[3-(2-{dispiro[2.0.2.1]heptan-7-yl}-2-hydroxyethoxy)-1H-pyrazol-1-yl]-12,12-dimethyl-2λ^6-thia-3,9,11,18,23-pentaazatetracyclo[17.3.1.111,14.05,10]tetracosa-1(22),5,7,9,19(23),20-hexaene-2,2,4-trione]", "values": [{"measurement": "EC50", "value": "< 1000", "unit": "nM"}, {"measurement": "Max. Activity", "value": "+++ (+++ is >60%)"}]}, {"compound": "CC1(C)C[C@@H]2CCCNc3cccc(n3)S(=O)(=O)NC(=O)c3ccc(-n4ccc(OCC(=O)C5C6(CC6)C56CC6)n4)nc3N1C2", "note": "[Compound 258, (14S)-8-[3-(2-{Dispiro[2.0.2.1]heptan-7-yl}-2-oxoethoxy)-1H-pyrazol-1-yl]-12,12-dimethyl-2λ^6-thia-3,9,11,18,23-pentaazatetracyclo[17.3.1.111,14.05,10]tetracosa-1(22),5,7,9,19(23),20-hexaene-2,2,4-trione]", "values": [{"measurement": "EC50", "value": "< 1000", "unit": "nM"}, {"measurement": "Max. Activity", "value": "+++ (+++ is >60%)"}]}, {"compound": "CC1(C)C[C@@H]2CCCNc3ccc(O)c(n3)S(=O)(=O)NC(=O)c3ccc(-n4ccc(OCCC5C6(CC6)C56CC6)n4)nc3N1C2", "note": "[Compound 260, (14S)-8-[3-(2-{dispiro[2.0.2.1]heptan-7-yl}ethoxy)-1H-pyrazol-1-yl]-22-hydroxy-12,12-dimethyl-2λ^6-thia-3,9,11,18,23-pentaazatetracyclo[17.3.1.111,14.05,10]tetracosa-1(22),5,7,9,19(23),20-hexaene-2,2,4-trione]", "values": [{"measurement": "EC50", "value": "< 1000", "unit": "nM"}, {"measurement": "Max. Activity", "value": "+++ (+++ is >60%)"}]}, {"compound": "CC1(C)C[C@@H]2CCCNc3ccc(O)c(n3)S(=O)(=O)NC(=O)c3ccc(-n4ccc(OCCCC5(C(F)(F)F)CC5)n4)nc3N1C2", "note": "[Compound 261, (14S)-22-hydroxy-12,12-dimethyl-8-(3-{3-[1-(trifluoromethyl)cyclopropyl]propoxy}-1H-pyrazol-1-yl)-2λ^6-thia-3,9,11,18,23-pentaazatetracyclo[17.3.1.111,14.05,10]tetracosa-1(22),5,7,9,19(23),20-hexaene-2,2,4-trione]", "values": [{"measurement": "EC50", "value": "< 1000", "unit": "nM"}, {"measurement": "Max. Activity", "value": "++ (++ is 30-60%)"}]}, {"compound": "CC1(C)CC2CCCNc3cccc(n3)S(=N)(=O)NC(=O)c3ccc(-n4ccc(OCCC5(C(F)(F)F)CC5)n4)nc3N1C2", "note": "(centres unmarked) [Compound 262, 2-imino-12,12-dimethyl-8-(3-{2-[1-(trifluoromethyl)cyclopropyl]ethoxy}-1H-pyrazol-1-yl)-2λ^6-thia-3,9,11,18,23-pentaazatetracyclo[17.3.1.111,14.05,10]tetracosa-1(23),5,7,9,19,21-hexaene-2,4-dione]", "values": [{"measurement": "EC50", "value": "< 1000", "unit": "nM"}, {"measurement": "Max. Activity", "value": "+++ (+++ is >60%)"}]}, {"compound": "CC1(C)CC2CCCNc3cccc(n3)S(=N)(=O)NC(=O)c3ccc(-n4ccc(OCCC5(C(F)(F)F)CC5)n4)nc3N1C2", "note": "(centres unmarked) [Compound 263, 2-imino-12,12-dimethyl-8-(3-{2-[1-(trifluoromethyl)cyclopropyl]ethoxy}-1H-pyrazol-1-yl)-2λ^6-thia-3,9,11,18,23-pentaazatetracyclo[17.3.1.111,14.05,10]tetracosa-1(23),5,7,9,19,21-hexaene-2,4-dione]", "values": [{"measurement": "EC50", "value": "< 1000", "unit": "nM"}, {"measurement": "Max. Activity", "value": "++ (++ is 30-60%)"}]}, {"compound": "CC1(C)C[C@@H]2CCCNc3cc(O)cc(n3)S(=O)(=O)NC(=O)c3ccc(-n4ccc(OCCC5C6(CC6)C56CC6)n4)nc3N1C2", "note": "[Compound 264, (14S)-8-[3-(2-{Dispiro[2.0.2.1]heptan-7-yl}ethoxy)-1H-pyrazol-1-yl]-21-hydroxy-12,12-dimethyl-2λ^6-thia-3,9,11,18,23-pentaazatetracyclo[17.3.1.111,14.05,10]tetracosa-1(23),5,7,9,19,21-hexaene-2,2,4-trione]", "values": [{"measurement": "EC50", "value": "< 1000", "unit": "nM"}, {"measurement": "Max. Activity", "value": "+++ (+++ is >60%)"}]}, {"compound": "CC1(C)C[C@@H]2CCCNc3cc(O)cc(n3)S(=O)(=O)NC(=O)c3ccc(-n4ccc(OCCCC5(C(F)(F)F)CC5)n4)nc3N1C2", "note": "[Compound 265, (14S)-21-Hydroxy-12,12-dimethyl-8-(3-{3-[1-(trifluoromethyl)cyclopropyl]propoxy}-1H-pyrazol-1-yl)-2λ^6-thia-3,9,11,18,23-pentaazatetracyclo[17.3.1.111,14.05,10]tetracosa-1(22),5,7,9,19(23),20-hexaene-2,2,4-trione]", "values": [{"measurement": "EC50", "value": "< 1000", "unit": "nM"}, {"measurement": "Max. Activity", "value": "+++ (+++ is >60%)"}]}]}
